These results are taken from patent US7951359B2, “Compositions and methods for therapy or prevention of chemotherapy-induced neuropathy” (Merck Serono SA, priority 2004, dated 2011).

A short description of data set [1]: Body weight in vincristine induced neuropathy rat model. The note with it: vincristine 0.15 mg/kg, vehicle-treated.
Experimental: The experiments were carried out employing 10 weeks-old female Dark Agouti rats (Janvier, Le Genest-St-Isle, France). […] 4-MC is a standard compound with an established neuroprotective action, used at the dose of 10 μg/kg (n=10).
Vincristine (Tocris, Illkirch, France) was administered by an injection of a vincristine solution from day 0 to 5, from day 8 to 12 and from day 15 to 16 at a dose of 0.15 mg/kg. A vincristine solution (0.03 mg/ml) was prepared in saline.
IL-6 was diluted in saline containing 0.02% BSA and was administered via subcutanuous route every day from the first day of vincristine administration until the end of the experiment.
The subject of data set [2] is breast (MCF7) tumor cell line. The data set is described as follows: Cell survival by acid phosphatase activity assay, MCF7. Format: cell-based, human. The note with it: cisplatin (2.5 μM), carboplatin (25 μM), 4 days. On the procedure: (§1) The human lung (SK-MES1) and breast (MCF7) tumor cell lines were obtained from ATCC. The cell lines were maintained in Dulbecco's MEM medium (Gibco; Invitrogen, Cergy-Pontoise, France, ref. 41965039) supplemented with 1% antibiotic/antimicotic mixture solution (Gibco, ref. 15240062), and 10% heat-inactivated foetal bovine serum (Gibco, ref. F7524, batch 92K3387). The cells were amplified in Nunc tissue culture flasks (80 cm2) in a humidified incubator at 37° C. with 5% CO2 in 95% air. Cultures were sub-cultured twice a week.
(§2) The enzymatic activity has been proven to be proportional to the number of living cells (Ueda et al.; 1994).
(§3) Three days after the last replication, tumor cells were seeded in 96 well-plates (TPP, VWR International, Fontenay-sous-bois, France) at a density of 1,500 cells (MCF7 line) or 3,000 cells (SK-MES1 line) per well, in a total volume of 100 μl/well and incubated overnight in a humidified incubator at 37° C. with 5% CO2 in 95% air. […] IL-6 (in buffer solution at 1.8 mg/ml, PH: 7) was immediately added at concentrations of 0, 3, 12, 50 or 200 ng/ml.
(§4) Four days after the initiation of the intoxication, acid phosphatase activity (Example 21) in each cell culture was assessed.
(§5) After removal of the culture medium, cells were rinsed with phosphate-buffered saline (PBS, Gibco, ref. 14190-094) and further incubated for 90 min at 37° C. in 100 μl of buffer containing 0.1 mol/l sodium acetate (pH 5.5), 0.1% Triton X100 (Sigma, ref. T9284) and 10 mmol/l p-nitrophenyl phosphate (Sigma, ref. N9389). Reaction was stopped by addition of 10 μl of 1 mol/l sodium hydroxide aqueous solution (Laboratoire de Produit Chimiques de la Robertsau, Strasbourg, France; ref. 28.252.293). Absorbance of the colored solution was measured at 405 nm in a microplate reader (Labsystems Multiskan Bichromatic, EST-LAB, Strasbourg, France).
(§6) The results were expressed as percentage of optical density of the control cell cultures. The heights of the columns represent mean±SEM of percentages of 5-6 wells from two independent cultures.

Data set [3] relates to vincristine induced neuropathy. The data set is described as follows: Hindpaw skin biopsy, density of dermal nerve fibers in vincristine-treated rats. Format: in vivo, rat. As to conditions: vincristine intoxication.
Experimental: A 5-10 mm diameter area of skin was punch-biopsied from the hindpaw. Skin samples were immediately fixed overnight in paraformaldehyde at 4° C., incubated (overnight) in 30% sucrose in 0.1 M PBS for cryoprotection, embedded in OCT and frozen at −80° C. until cryocut. 50 μm-thick cryosections were then cut vertical to the skin surface with a cryostat. Free-floating sections were incubated for 7 days in a bath of rabbit anti-protein gene product 9.5 (1:10000; Ultraclone, Isle of Man, UK) at 4° C. The sections were then processed to reveal immunoreactivity according to the ABC peroxidase method. Briefly, they were incubated in for 1 hr with biotinylated anti-goat antibody (1:200), then 30 min in the avidin biotinylated complex at room temperature. Peroxidase activity was visualized using DAB system. Sections were then counterstained with eosin or hematoxylin. Sections were dehydrated, cleared with bioclear and mounted on eukitt. The number of dermal nerves of 3 microscope fields was counted manually under 40 magnification view.
Data set [4] relates to vincristine induced neuropathy. The data set is described as follows: Hot plate test in vincristine-treated rats. The class given is in vivo, rat. The note with it: vincristine alone; significant at 3 and 5 weeks. On the procedure:
The rat was placed inside a glass cylinder of 17 cm height and 21 cm diameter on a heating-plate maintained at 52° C. (Medite OTS 40, Microm, Francheville, Rhône, France). The animal behavior was observed, particularly the licking of a foot and the adjusted leap. The latency before licking a foot or before jumping to escape the heat (adjusted leap) was recorded. The time needed to feel the thermal pain is related to the thermal sensitivity and tends to increase when thermal sensitivity is altered.
A general note: Hot-plate and tail-flick tests time the reaction to a heat stimulus.

Data set [5] concerns vincristine induced neuropathy. The data set can be described thus: Electromyography (EMG) in vincristine-treated rats. Format: in vivo, rat. As to conditions: vincristine alone. On the procedure: In parallel to behavioral tests, electrophysiological test as described in Example 17, were carried out to evaluate fiber/nerve function in vincristine-administered rats vis-à-vis rats co-administrated with IL-6.
Electrophysiological recordings were performed using a Neuromatic 2000M electromyograph (EMG) (Dantec, Les Ulis, France). Rats were anaesthetized by IP injection of 60 mg/kg ketamine chlorhydrate (Imalgene 500®, Rhône Merieux, Lyon, France). The normal body temperature was maintained around […] with a heating lamp and verified using a contact thermometer (Quick, Bioblock Scientific, Illkirch, France) placed on the tail surface.
Compound muscle action potential (CMAP) of M wave signal (or electrically evoked muscle potential) was recorded in the gastrocnemius muscle after stimulation of the sciatic nerve. M wave reflects the current developed during the action potential of muscle fibers. A reference electrode and an active needle were placed in the hind paw. A ground needle was inserted on the lower back of the rat. Sciatic nerve was stimulated with a single 0.2 ms pulse at supramaximal intensity. The […] of the motor wave was recorded and expressed in ms.
Sensitive nerve conduction velocity (SNCV) was also recorded. The tail skin electrodes were placed as follows: a reference needle inserted at the base of the tail and an anode needle placed 30 mm away from the reference needle toward the extremity of the tail. A ground needle electrode was inserted between the anode and reference needles. The caudal nerve was stimulated with a series of 20 pulses (for 0.2 ms) at an intensity of 12.8 mA. The velocity was expressed in m/s.
H-wave reflex was recorded in the hind footpad muscle after stimulation of the sciatic nerve. A reference electrode and a ground needle were placed on the lower back of the rat. The sciatic nerve was stimulated with a single 0.2 ms pulse at supramaximal intensity. The amplitude (mV) of H wave and the proportion of animal lacking H wave response were the parameters studied.

The subject of data set [6] is lung (SK-MES1) tumor cell line. The data set can be described thus: Cell survival by acid phosphatase activity assay, SK-MES1. The class given is cell-based, human. As to conditions: cisplatin (2.5 μM), carboplatin (25 μM), 4 days. On the procedure: as §1, §2, §3, §4, §5, §6
The test system of data set [7] is vincristine induced neuropathy. The data set can be described thus: Walking test (motor coordination) in vincristine-treated rats. The note with it: vincristine alone; after 2 and 3 weeks. The class given is in vivo, rat. On the procedure:
The motor coordination was assessed using walking test, which consists at measuring the time taken by a rat placed at one extremity of a 100 cm-long horizontal wooden rod of 5.5 cm diameter, 40 cm above the table, to cover a distance of 1 m on this rod. Three tests (maximum duration: 60 s each) were performed, and the mean value was calculated and retained as characteristic value. If the animal fell down, it was scored with a maximum of 60 s.

Data set [8] has as its system vincristine induced neuropathy. The data set is described as follows: Morphometric analysis of sciatic nerve in vincristine-treated rats. The class given is in vivo, rat. The note with it: vincristine alone. On the procedure:
Histomorphometric analyses were carried out as described in Example 18 at the completion of the experiments, to explore morphologic changes occurring in fiber and axon diameter and myelin thickness in rats treated with vincristine and in rats co-administrated with IL-6.
With vincristine, morphometric analysis was performed 2 week after the end of vincristine administration on 3 animals per group. The animals were anesthetized by IP injection of 100 mg/kg Imalgène 500®. A 5 mm segment of sciatic nerve was excised, fixed overnight with 4% glutaraldehyde (Sigma, L'Isle d'Abeau-Chesnes, France) in phosphate buffered saline (PBS) (pH=7.4) and maintained in 30% sucrose and stored at 4° C. until further processing. At the time of use, the nerve sample was post-fixed in 1% osmium tetroxide (Sigma, L'Isle d'Abeau-Chesnes, France) in PBS for 2 h, dehydrated in serial alcohol solution, and embedded in Epon. Embedded tissues were then placed at 70° C. during 3 days to allow polymerization of the tissue wax. Cross sections of 1.5 μm thick were performed and they were stained with a 1% toluidine blue solution (Sigma, L'Isle d'Abeau-Chesnes, France) for 2 min, dehydrated and mounted on Eukitt. Twelve sections per sample were examined using an optical microscope (Nikon, Tokyo, Japan) and analyzed using, a semi-automated digital image analysis software (Biocom, France). The fiber diameter (a), axon diameter (b), and myelin thickness (c) were measured as illustrated below.

Data set [9] relates to CIPN caused by carboplatin/paclitaxel. The note with it: 2 or 4 μg/kg sub coetaneous daily for 7 days; cited from earlier work.

With `CC[C@]1(O)C[C@H]2CN(CCc3c([nH]c4ccccc34)[C@@](C(=O)OC)(c3cc4c(cc3OC)N(C=O)[C@H]3[C@@](O)(C(=O)OC)[C@H](OC(C)=O)[C@]5(CC)C=CCN6CC[C@]43[C@@H]65)C2)C1` [vincristine], the “body weight lost at completion of vincristine administration” value in data set [1] was “about 10%”. Besides, the “decrease in cell survival versus control” value in data set [2] is given as “about 50%”. Besides, in [3], the “decrease in the density of epidermal nerve fibers” value is recorded as “more than 50%”. Besides, the “hot plate first reaction to heat versus control” value in [4] is “delayed first reaction to heat”. The “loss of M wave amplitude versus control” value in [5] (2 weeks) is on record as “about 20%”. In data set [5] (5 weeks after treatment initiation), the “loss of SNCV” value is “about 10 m/s”. The “decrease in cell survival versus control” value in [6] is reported as “about 50%”. Besides, the “walking test performance versus non-treated controls” value in data set [7] was “significantly reduced”. Moreover, in data set [8], the axon diameter entry is “significantly decreases”, the “myelin thickness versus control” value is “significantly reduced”, the “percentage of degenerated fibers versus control” value was “two times higher” and the “percentage of myelinated fibers versus control” value was “less than that in the control non-treated group”. The “sciatic nerve fiber diameter versus control” value in data set [8] is “significant decrease in fiber diameter”.

Consider “LIF: Recombinant leukemia inhibitor factor (LIF), another gp130 activator”, for which the “prevention of CIPN” value in [9] is given as “ineffective at preventing CIPN”.
